Measured values from patent publication US4331666A, “3-[(8-Carboxy-6-tetraz olo[1,5-b]pyridazinyl)-thiomethyl]-7-[2-(2-amino-4-thiazolyl)-2-methoxyim ino-acetamido]-3-cephem-4-carboxylic acid” (Farmitalia Carlo Erba S.p.A., priority 1979, dated 1982).
Read-outs that look alike come from different tables or passages of the source.

Key:
streptococci = assay type: cell-based
[1] = system: 10 strains of Pseudomonas aeruginosa, 4 strains of Proteus vulgaris and 4 strains of Proteus morganii; assay: test on a series of strains of Pseudomonas aeruginosa, Proteus vulgaris and Proteus morganii; assay type: cell-based; details: 10 strains Pseudomonas aeruginosa, 4 strains Proteus vulgaris, 4 strains Proteus morganii
Gram-negative bacteria = assay: antibacterial activity against most Gram-negative bacteria (compared with Cefazolin and Cefuroxime); assay type: cell-based
[2] = system: Pseudomonas aeruginosa G.; assay: in vitro activity against Pseudomonas aeruginosa G.; assay type: cell-based
[3] = system: mice infected with Escherichia coli G, Klebsiella pneumoniae ATCC 10031, Proteus mirabilis ATCC 9921, Escherichia coli Tem., Haemophilus influenzae Salmonella …; assay: in vivo activity in infected mice; details: in words
[4] = plasma half-life in the mouse after intravenous injection; details: in vivo
[5] = system: Bacteroides fragilis VPL 9032; assay: in vitro activity against Bacteroides fragilis VPL 9032; assay type: cell-based
[6] = approximate acute toxicity (LD50) in the mouse; details: in vivo, single intravenous administrations of increasing doses, measured on the seventh day
Source text: The toxicity of the compounds of the invention is quite negligible and therefore they can be safely used in therapy. […] Analogous activity and toxicity data have been found for the other compounds of the invention.

[7] = plasma half-life in the rat after intravenous injection; details: in vivo

| Compound | times more active than Cefazolin against streptococci (streptococci; ratio vs Cefazolin, streptococci) | activity compared with Cefazolin and Cefuroxime [1] | times more active than Cefazolin and Cefuroxime against most Gram-negative bacteria (Gram-negative bacteria; ratio vs Cefazolin and Cefuroxime) | in vitro activity [2] | activity in vivo tests [3] | half-life [4] [h] | times more active than Cefazolin against streptococci (streptococci) | in vitro activity [5] | times more active than Cefazolin against most Gram-negative bacteria (Gram-negative bacteria; ratio vs Cefazolin) | times more active than Cefuroxime against most Gram-negative bacteria (Gram-negative bacteria; ratio vs Cefuroxime) [times] | LD50 at 168 h [6] [mg/kg] | half-life [7] [h] |
| --- | --- | --- | --- | --- | --- | --- | --- | --- | --- | --- | --- | --- |
| CON=C(C(=O)NC1C(=O)N2C(C(=O)O)=C(CSc3cc(N)c4nnnn4n3)CSC12)c1csc(N)n1 (stereo not drawn) [FCE 20127, 3-[(8-amino-6-tetrazolo[1,5-b]pyridazinyl)-thiomethyl]-7-[2-(2-amino-4-thiazolyl)-2-methoxyiminoacetamido]-3-cephem-4-carboxylic acid (syn-isomer)] | about 24 times | several times more active than Cefazolin and Cefuroxime | about 30 times | – | – | – | – | – | – | – | – | – |
| CON=C(C(=O)NC1C(=O)N2C(C(=O)O)=C(CSc3cc(C(=O)O)c4nnnn4n3)CSC12)c1csc(N)n1 (stereo not drawn) [FCE 20485, 3-[(8-carboxy-6-tetrazolo[1,5-b]pyridazinyl)-thiomethyl]-7-[2-(2-amino-4-thiazolyl)-2-methoxyiminoacetamido]-3-cephem-4-carboxylic acid (syn-isomer)] | – | – | – | significant in vitro activity | high activity | ~1.5 | about 5 times | significant in vitro activity | about 32 times | ~40 | > 2000 | ~1.67 |
